System: human leukemia cell line CCRF/CEM
Assay: Cytotoxicity test (growth inhibition of CCRF/CEM cells)
Assay type: cell-based
Conditions: 72 hours exposure, cell count, non-linear regression, read-out: IC50 (concentration capable of inhibiting 50% of cell growth)
Method: The cytotoxicity of the compounds synthesized 1–28 was assessed using a human leukemia cell line called CCRF/CEM. The CCRF/CEM cells were cultured in a culture medium containing RPMI 1640 (90%), bovine fetal sera (10%) and interleukin-2 (100 U/ml). The cytotoxicity assay was performed on […] CCRF/CEM cells seeded in 35 mm wells in 2 ml of culture medium. The cells were treated with the compounds under consideration for 72 hours and at the end of the period of exposure their number was counted and compared with that of control cells treated with C2-ceramide in order to establish the percentage of growth inhibition. The concentration capable of inhibiting 50% of cell growth was calculated by non-linear regression of the experimental data as described in M. Macchia, N. Jannitti, G. B. Gervasi, R. Danesi, J Med Chem, (1996) 39 (7): 1352–1356.

For CCCCCCCCCCCCC/C=C/[C@@H](O)[C@H](CO)NC(C)=O [controls, C2-ceramide], the IC50 was 31.6 µM.
